From ChEMBL document CHEMBL1137112, “4-Acylamino-6-arylfuro[2,3-d]pyrimidines: potent and selective glycogen synthase kinase-3 inhibitors” (Bioorg Med Chem Lett, 2004)

How the values were obtained:
[1] = molecular target: Glycogen synthase kinase-3 beta (Homo sapiens, UniProt P49841); test: Inhibition of human Glycogen synthase kinase-3 beta
[2] = molecular target: Cyclin-dependent kinase 2 (Homo sapiens, UniProt P24941); test: Inhibition of cyclin-dependent kinase 2
[3] = molecular target: Vascular endothelial growth factor receptor 2 (Homo sapiens, UniProt P35968); test: Inhibition of Vascular endothelial growth factor receptor 2 kinase
L6 = test: Potency of compound in glycogen accumulation in L6 cells; type: functional, cell-based; details: Rattus norvegicus

Chain of Vascular endothelial growth factor receptor 2 (P35968 whole entry): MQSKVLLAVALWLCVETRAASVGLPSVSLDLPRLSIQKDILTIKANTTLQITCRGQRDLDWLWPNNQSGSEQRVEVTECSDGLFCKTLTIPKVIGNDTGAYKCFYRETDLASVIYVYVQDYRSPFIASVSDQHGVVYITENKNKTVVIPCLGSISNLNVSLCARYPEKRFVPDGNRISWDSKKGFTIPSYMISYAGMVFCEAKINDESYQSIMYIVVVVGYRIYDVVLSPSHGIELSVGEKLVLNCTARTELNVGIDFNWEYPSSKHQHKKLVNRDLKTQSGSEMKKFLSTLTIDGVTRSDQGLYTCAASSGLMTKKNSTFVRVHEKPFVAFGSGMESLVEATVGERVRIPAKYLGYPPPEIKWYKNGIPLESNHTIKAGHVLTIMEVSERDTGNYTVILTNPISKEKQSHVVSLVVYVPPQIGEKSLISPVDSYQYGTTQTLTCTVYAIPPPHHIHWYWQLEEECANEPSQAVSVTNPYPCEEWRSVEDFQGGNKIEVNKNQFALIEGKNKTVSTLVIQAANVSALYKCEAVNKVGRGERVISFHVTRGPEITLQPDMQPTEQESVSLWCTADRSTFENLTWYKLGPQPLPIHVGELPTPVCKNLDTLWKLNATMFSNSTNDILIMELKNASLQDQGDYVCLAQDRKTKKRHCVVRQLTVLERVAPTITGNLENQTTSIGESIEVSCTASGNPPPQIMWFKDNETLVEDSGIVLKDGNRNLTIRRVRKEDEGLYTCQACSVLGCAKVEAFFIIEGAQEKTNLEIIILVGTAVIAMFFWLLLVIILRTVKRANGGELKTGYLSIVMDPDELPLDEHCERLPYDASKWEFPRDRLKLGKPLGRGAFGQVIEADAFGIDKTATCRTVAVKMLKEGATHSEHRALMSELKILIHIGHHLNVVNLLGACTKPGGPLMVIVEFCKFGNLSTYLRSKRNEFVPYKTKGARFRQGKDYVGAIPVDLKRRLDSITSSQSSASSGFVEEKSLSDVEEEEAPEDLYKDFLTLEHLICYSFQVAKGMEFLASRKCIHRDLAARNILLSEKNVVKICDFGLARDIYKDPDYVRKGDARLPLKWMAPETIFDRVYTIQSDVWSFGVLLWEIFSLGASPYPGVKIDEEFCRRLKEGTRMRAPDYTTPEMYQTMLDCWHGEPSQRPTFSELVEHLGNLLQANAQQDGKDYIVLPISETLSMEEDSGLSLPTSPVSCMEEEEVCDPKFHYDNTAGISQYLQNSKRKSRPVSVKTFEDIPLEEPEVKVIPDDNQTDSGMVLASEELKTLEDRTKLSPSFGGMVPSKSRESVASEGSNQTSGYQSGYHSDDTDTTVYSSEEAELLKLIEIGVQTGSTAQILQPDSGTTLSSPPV
Chain of Glycogen synthase kinase-3 beta (P49841 whole entry): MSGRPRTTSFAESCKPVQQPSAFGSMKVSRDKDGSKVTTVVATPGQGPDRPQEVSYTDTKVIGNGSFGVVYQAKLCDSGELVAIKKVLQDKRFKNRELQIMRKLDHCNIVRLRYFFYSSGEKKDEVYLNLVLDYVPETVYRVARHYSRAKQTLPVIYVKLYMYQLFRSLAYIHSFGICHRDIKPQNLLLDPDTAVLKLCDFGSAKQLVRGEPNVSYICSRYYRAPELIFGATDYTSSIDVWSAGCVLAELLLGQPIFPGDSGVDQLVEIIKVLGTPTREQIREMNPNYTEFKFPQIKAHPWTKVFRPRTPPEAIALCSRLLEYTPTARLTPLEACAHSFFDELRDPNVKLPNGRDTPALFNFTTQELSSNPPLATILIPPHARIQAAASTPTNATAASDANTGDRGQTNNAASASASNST

Compound | IC50 [1] [nM] | IC50 [2] [nM] | IC50 [3] [nM] | EC50 (L6) [nM]
COc1ccc(-c2cc3c(NC(=O)N4CCOCC4)ncnc3o2)cc1 | > 34000 | > 20000 | > 48000 | 
COc1ccc(-c2cc3c(NC(=O)N4CCCC4)ncnc3o2)cc1 | 1950 | > 21000 | 12300 | 
COc1ccc(-c2cc3c(NC(=O)C4CCCC4)ncnc3o2)cc1 | 30 | > 19000 | 1020 | 
Cc1ccc(-c2cc3c(NC(=O)C4CCCC4)ncnc3o2)cc1 | 240 | > 20000 | > 20000 | 
O=C(Nc1ncnc2oc(-c3cccnc3)cc12)C1CCCC1 | 5 | 450 | > 24000 | 390
COc1ccc(-c2cc3c(NC(=O)CCSC)ncnc3o2)cc1 | 537 | > 20000 | > 47000 | 
COc1ccc(-c2cc3c(NC(=O)CC4CCCC4)ncnc3o2)cc1 | 320 | > 19000 | > 48000 | 
O=C(Nc1ncnc2oc(-c3ccc(Cl)cc3)cc12)C1CC1 | 1000 | > 20000 | 2040 | 
O=C(Nc1ncnc2oc(-c3ccccc3)cc12)C1CCCC1 | 20 | > 19000 | > 23000 | > 10000
COc1ccc(-c2cc3c(NC(=O)C(C)C)ncnc3o2)cc1 | 130 | > 21000 | > 48000 | 
O=C(Nc1ncnc2oc(-c3ccc(Cl)cc3)cc12)C1CCCC1 | 550 | > 20000 | > 20000 | 
O=C(Nc1ncnc2oc(-c3ccc(F)cc3)cc12)C1CC1 | 575 | > 19000 | 2040 | 
COc1ccc(-c2cc3c(NC(=O)c4ccco4)ncnc3o2)cc1 | 2400 | > 20000 | > 48000 | 
O=C(Nc1ncnc2oc(-c3ccc(F)cc3)cc12)C1CCCC1 | 219 | > 19000 | > 19000 | 
COc1ccc(-c2cc3c(NC(=O)C4CCCCC4)ncnc3o2)cc1 | 1820 | > 20000 | > 48000 | 
O=C(Nc1ncnc2oc(-c3ccccc3)cc12)C1CC1 | 170 | > 21000 | 830 | 
CCCCCC(=O)Nc1ncnc2oc(-c3ccc(OC)cc3)cc12 | 437 | > 19000 | > 48000 | 
O=C(Nc1ncnc2oc(-c3cccnc3)cc12)C1CC1 | 5 | 440 | 3240 | 740
COc1ccc(-c2oc3ncnc(N)c3c2-c2cccnc2)cc1 | 80 |  |  | 
COc1ccc(-c2cc3c(NC(=O)C4CC4)ncnc3o2)cc1 | 316 | > 20000 | 3550 | 
COc1ccc(-c2cc3c(NC(=O)c4cccc(F)c4)ncnc3o2)cc1 | > 35000 | > 21000 | 21900 | 
Cc1ccc(-c2cc3c(NC(=O)C4CC4)ncnc3o2)cc1 [GW819230X] | 617 | > 21000 | 630 | 
